Measurements published in ChEMBL document CHEMBL1201862, “PubChem BioAssay data set” (2004).
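96-well plates; 48 h exposure; 5 concentrations. Endpoints by linear interpolation between flanking doses. Not reached: highest tested concentration assigned. The concentration for 50% growth inhibition is given as GI50.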 Activity calls are given as the source filed them. Rule as the data show it: active = GI50 up to about 1.1 µM and inactive = higher.

What was measured:
Experiment in all cases: NCI anticancer screen, dose series, 48 h
786-0 = test system: 786-0
BT-549 = test system: BT-549
HCC 2998 = test system: HCC 2998
HCT-116 = test system: HCT-116
Hs-578T = test system: Hs-578T
IGROV-1 = test system: IGROV-1
MCF7 = test system: MCF7
MDA-MB-231 = test system: MDA-MB-231
MDA-MB-435 = test system: MDA-MB-435
MDA-N = test system: MDA-N
NCI-H460 = test system: NCI-H460
PC-3 = test system: PC-3
T47D = test system: T47D
UACC-62 = test system: UACC-62
UO-31 = test system: UO-31
M19-MEL = test system: M19-MEL
SR = test system: SR
RXF 393 = test system: RXF 393

| SMILES | GI50 (786-0) | GI50 (BT-549) | GI50 (HCC 2998) | GI50 (HCT-116) | GI50 (Hs-578T) | GI50 (IGROV-1) | GI50 (MCF7) | GI50 (MDA-MB-231) | GI50 (MDA-MB-435) | GI50 (MDA-N) | GI50 (NCI-H460) | GI50 (PC-3) | GI50 (T47D) | GI50 (UACC-62) | GI50 (UO-31) | GI50 (M19-MEL) | GI50 (SR) | GI50 (RXF 393) |
| --- | --- | --- | --- | --- | --- | --- | --- | --- | --- | --- | --- | --- | --- | --- | --- | --- | --- | --- |
| CO[C@H]1C=C[C@@]23c4cc5c(cc4CO[C@]2(O)CN(C)[C@H]3C1)OCO5 | > 100 µM (inactive) | > 100 µM (inactive) | > 100 µM (inactive) | > 100 µM (inactive) | > 100 µM (inactive) | > 100 µM (inactive) | > 100 µM (inactive) | > 100 µM (inactive) | > 100 µM (inactive) | > 100 µM (inactive) | > 100 µM (inactive) | > 100 µM (inactive) | > 100 µM (inactive) | > 100 µM (inactive) | > 100 µM (inactive) | – | – | – |
| COc1ccc(/C=N/n2c(C)nc3c(sc(=S)n3-c3ccccc3)c2=O)cc1 | – | – | > 100 µM (inactive) | > 100 µM (inactive) | – | > 100 µM (inactive) | – | – | – | – | 31.6 µM (inactive) | – | – | 60.5 µM (inactive) | > 100 µM (inactive) | 63.2 µM (inactive) | 44 µM (inactive) | – |
| O=C1CC(CC(OCc2ccccc2)C(COCc2ccccc2)OCc2ccccc2)CC(=O)N1 (stereo not drawn) | 32.4 µM (inactive) | 13 µM (inactive) | 36.6 µM (inactive) | 23.6 µM (inactive) | 44.2 µM (inactive) | 70.5 µM (inactive) | 33.1 µM (inactive) | 50.2 µM (inactive) | 29.6 µM (inactive) | 30.1 µM (inactive) | 32.4 µM (inactive) | 24.7 µM (inactive) | 27.9 µM (inactive) | – | 16 µM (inactive) | – | 34.3 µM (inactive) | 30.1 µM (inactive) |
| CCCCC1(N=[N+]=[N-])C(=O)c2cccc3c2N(CCC3)C1=O (stereo not drawn) | > 100 µM (inactive) | > 100 µM (inactive) | > 100 µM (inactive) | > 100 µM (inactive) | > 100 µM (inactive) | > 100 µM (inactive) | > 100 µM (inactive) | > 100 µM (inactive) | > 100 µM (inactive) | > 100 µM (inactive) | > 100 µM (inactive) | > 100 µM (inactive) | > 100 µM (inactive) | 69.2 µM (inactive) | – | – | > 100 µM (inactive) | > 100 µM (inactive) |
| O=C(NC1C/C(=N/O)c2c(Br)sc(Br)c21)C(F)(F)F (stereo not drawn) | 18.2 µM (inactive) | 32.1 µM (inactive) | 22.6 µM (inactive) | 17.1 µM (inactive) | 11.2 µM (inactive) | 94 µM (inactive) | 37.6 µM (inactive) | 13.1 µM (inactive) | 47.2 µM (inactive) | 32.3 µM (inactive) | 25.4 µM (inactive) | 13.9 µM (inactive) | 20.7 µM (inactive) | 16.9 µM (inactive) | 13.7 µM (inactive) | – | – | 11.3 µM (inactive) |
| CN(C)c1ccc(/C=C2/SC(=S)NC2=O)cc1 | > 100 µM (inactive) | > 100 µM (inactive) | > 100 µM (inactive) | 33.2 µM (inactive) | > 100 µM (inactive) | > 100 µM (inactive) | > 100 µM (inactive) | 90.8 µM (inactive) | > 100 µM (inactive) | > 100 µM (inactive) | > 100 µM (inactive) | > 100 µM (inactive) | > 100 µM (inactive) | > 100 µM (inactive) | > 100 µM (inactive) | – | > 100 µM (inactive) | > 100 µM (inactive) |
| O=C(O)c1cc(-c2ccc3cc4c(cc3c2)OCO4)nc2ccccc12 | 30.7 µM (inactive) | 22.8 µM (inactive) | – | 19.5 µM (inactive) | 49.2 µM (inactive) | 29 µM (inactive) | 32.2 µM (inactive) | 31.4 µM (inactive) | 85.3 µM (inactive) | 36 µM (inactive) | 12.9 µM (inactive) | 14.1 µM (inactive) | 54.8 µM (inactive) | 23.5 µM (inactive) | 11.5 µM (inactive) | – | 7.45 µM (inactive) | 54 µM (inactive) |
| CCCS(=O)(=O)O | – | > 100 µM (inactive) | – | – | > 100 µM (inactive) | > 100 µM (inactive) | > 100 µM (inactive) | > 100 µM (inactive) | > 100 µM (inactive) | – | > 100 µM (inactive) | > 100 µM (inactive) | > 100 µM (inactive) | > 100 µM (inactive) | > 100 µM (inactive) | – | > 100 µM (inactive) | > 100 µM (inactive) |
| COc1ccc(C(CC(=O)c2ccc(O)cc2)C(C(=O)c2ccc(O)cc2)C(c2ccc(OC)cc2)C2C(=O)NC(=S)NC2=O)cc1 (stereo not drawn) | 20.6 µM (inactive) | 18.5 µM (inactive) | – | 16.8 µM (inactive) | 26.7 µM (inactive) | 15.5 µM (inactive) | 14.5 µM (inactive) | 20.7 µM (inactive) | 25.5 µM (inactive) | 18.8 µM (inactive) | 18.1 µM (inactive) | 21.8 µM (inactive) | – | 17.7 µM (inactive) | 17.5 µM (inactive) | – | 38 µM (inactive) | – |
| CCN1CCC(O)(/C=C/c2ccc(C)cc2)C(C(=O)/C=C/c2ccc(C)cc2)C1 (stereo not drawn) | 2.08 µM (inactive) | 3.5 µM (inactive) | 2.29 µM (inactive) | 1.91 µM (inactive) | 1.86 µM (inactive) | 6.55 µM (inactive) | 2.36 µM (inactive) | 2.07 µM (inactive) | 2.93 µM (inactive) | 3.18 µM (inactive) | 4.45 µM (inactive) | 4.49 µM (inactive) | 2.82 µM (inactive) | 3.08 µM (inactive) | 3.85 µM (inactive) | – | 2.37 µM (inactive) | 2.79 µM (inactive) |
| CC(SC(=S)N1CCOCC1)C(=O)Nc1nnc(-c2ccc(Cl)cc2)o1 (stereo not drawn) | 27.9 µM (inactive) | > 100 µM (inactive) | > 100 µM (inactive) | 23.8 µM (inactive) | > 100 µM (inactive) | 33.8 µM (inactive) | 32.3 µM (inactive) | 51.5 µM (inactive) | 40.2 µM (inactive) | – | 35.2 µM (inactive) | 38.5 µM (inactive) | 51.3 µM (inactive) | 50.6 µM (inactive) | 22.4 µM (inactive) | – | 8.07 µM (inactive) | > 100 µM (inactive) |
| C/C(=C1\N=C(c2ccccc2)OC1=O)c1ccccc1 | – | 0.61 µM (active) | > 100 µM (inactive) | > 100 µM (inactive) | > 100 µM (inactive) | > 100 µM (inactive) | > 100 µM (inactive) | – | > 100 µM (inactive) | – | > 100 µM (inactive) | > 100 µM (inactive) | > 100 µM (inactive) | > 100 µM (inactive) | > 100 µM (inactive) | – | > 100 µM (inactive) | – |
| Cc1[nH]c2ncn(/N=C/c3ccccc3O)c(=N)c2c1Cc1ccccc1 | 81.8 µM (inactive) | 37.2 µM (inactive) | 28.9 µM (inactive) | 43.4 µM (inactive) | 96.2 µM (inactive) | > 100 µM (inactive) | 33 µM (inactive) | 24.9 µM (inactive) | 18.5 µM (inactive) | 26 µM (inactive) | 66.7 µM (inactive) | 17.6 µM (inactive) | > 100 µM (inactive) | 37.2 µM (inactive) | 43.1 µM (inactive) | – | – | > 100 µM (inactive) |
| C=CC(=O)NC(O)(C(=O)OCC)C(F)(F)F (stereo not drawn) | – | > 100 µM (inactive) | > 100 µM (inactive) | > 100 µM (inactive) | > 100 µM (inactive) | > 100 µM (inactive) | > 100 µM (inactive) | > 100 µM (inactive) | > 100 µM (inactive) | > 100 µM (inactive) | – | > 100 µM (inactive) | > 100 µM (inactive) | > 100 µM (inactive) | > 100 µM (inactive) | – | 64.4 µM (inactive) | > 100 µM (inactive) |
| Cc1ccc(NC(=S)NNC(=O)c2cc(-c3ccccc3)nc3ccccc23)cc1C | 16.3 µM (inactive) | 18.7 µM (inactive) | 18.8 µM (inactive) | 18.6 µM (inactive) | 36.1 µM (inactive) | 20 µM (inactive) | 12.4 µM (inactive) | 20.3 µM (inactive) | 24 µM (inactive) | 17.2 µM (inactive) | 19.5 µM (inactive) | 18.7 µM (inactive) | 0.853 µM (active) | 16.9 µM (inactive) | 17.9 µM (inactive) | – | 14.6 µM (inactive) | 27 µM (inactive) |
| Cc1nnc(Nc2ccc(Cl)cc2)o1 | > 10 µM (inactive) | – | > 10 µM (inactive) | > 10 µM (inactive) | > 10 µM (inactive) | > 10 µM (inactive) | > 10 µM (inactive) | > 10 µM (inactive) | > 10 µM (inactive) | > 10 µM (inactive) | > 10 µM (inactive) | > 10 µM (inactive) | > 10 µM (inactive) | > 10 µM (inactive) | > 10 µM (inactive) | – | – | > 10 µM (inactive) |
| O=C(O)c1ccc(NS(=O)(=O)Cc2ccccc2)cc1 | > 100 µM (inactive) | > 100 µM (inactive) | > 100 µM (inactive) | > 100 µM (inactive) | > 100 µM (inactive) | > 100 µM (inactive) | > 100 µM (inactive) | > 100 µM (inactive) | > 100 µM (inactive) | > 100 µM (inactive) | > 100 µM (inactive) | > 100 µM (inactive) | > 100 µM (inactive) | > 100 µM (inactive) | > 100 µM (inactive) | – | > 100 µM (inactive) | > 100 µM (inactive) |
| CC1C(=O)N(c2ccccc2)NC12CCCc1ccccc12 (stereo not drawn) | – | > 100 µM (inactive) | > 100 µM (inactive) | > 100 µM (inactive) | > 100 µM (inactive) | > 100 µM (inactive) | > 100 µM (inactive) | > 100 µM (inactive) | > 100 µM (inactive) | > 100 µM (inactive) | > 100 µM (inactive) | > 100 µM (inactive) | > 100 µM (inactive) | > 100 µM (inactive) | > 100 µM (inactive) | – | > 100 µM (inactive) | > 100 µM (inactive) |
